# Measurements from PubChem BioAssay (NCI).
# Values joined by “and” are separate entries in the source; they are usually repeats but may differ in a detail not shown here. Equal values may be shown once.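 How tested: cells in 96-well plates exposed to compound for 48 hours at five concentrations. GI50 = concentration required for 50% inhibition of growth. TGI denotes the concentration required for complete inhibition of growth.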
# Experiments:
# Experiment in all cases: NCI-60 cell line screen, 48 h
# LOX IMVI melanoma = test system: LOX IMVI melanoma
# PC-3 prostate = test system: PC-3 prostate
# CCRF-CEM leukemia = test system: CCRF-CEM leukemia
# HS 578T breast = test system: HS 578T breast
# DU-145 prostate = test system: DU-145 prostate
# MCF7 breast = test system: MCF7 breast
# NCI-H522 lung = test system: NCI-H522 lung
# OVCAR-4 ovarian = test system: OVCAR-4 ovarian
# SK-MEL-28 melanoma = test system: SK-MEL-28 melanoma
# RPMI-8226 leukemia = test system: RPMI-8226 leukemia
# SNB-75 CNS = test system: SNB-75 CNS
# HT29 colon = test system: HT29 colon
# A549 NSCLC = test system: A549 NSCLC
Compound,TGI (LOX IMVI melanoma),TGI (PC-3 prostate),TGI (CCRF-CEM leukemia),TGI (HS 578T breast),TGI (DU-145 prostate),TGI (MCF7 breast),TGI (NCI-H522 lung),TGI (OVCAR-4 ovarian),TGI (SK-MEL-28 melanoma),TGI (RPMI-8226 leukemia),TGI (SNB-75 CNS),TGI (HT29 colon),TGI (A549 NSCLC),GI50 (SNB-75 CNS),GI50 (NCI-H522 lung)
CC(=O)Nc1ccc(-c2nc3ccccc3s2)cc1I,> 81.7 µM,> 100 µM,> 100 µM,> 100 µM,> 51 µM,> 59.5 µM,> 100 µM,> 100 µM,> 100 µM,> 100 µM,67.4 µM,> 100 µM,> 100 µM,–,–
O=c1ccn(C2OC(CO)C(O)C2[Se]c2ccccc2)c(=O)[nH]1 (centres undefined),> 100 µM,> 100 µM,> 100 µM,> 100 µM,> 100 µM,> 100 µM,> 100 µM,> 100 µM,> 100 µM,–,> 100 µM,> 100 µM,> 100 µM,–,–
CN(C)CCN=C1Nc2ccccc2C(=S)N2CSCC12 (centres undefined),> 100 µM,> 100 µM,> 100 µM,> 100 µM,> 100 µM,> 100 µM,> 100 µM,> 100 µM,> 100 µM,> 100 µM,> 100 µM,> 100 µM,> 100 µM,–,–
Cc1ccc(N=Nc2ccc(O)c(CN(C)C)c2)cc1,28.6 µM,54.7 µM,63 µM,41.9 µM,47.3 µM,73.9 µM,32.6 µM,53.5 µM,41.1 µM,48 µM,75.1 µM,32.3 µM,49.4 µM,–,–
CC1=C/C(=N\O)C(C(O)(C(F)(F)F)C(F)(F)F)C(C)(C)C1 (centres undefined),> 10 µM,> 10 µM,> 10 µM,> 10 µM,> 10 µM,> 10 µM,> 10 µM,> 10 µM,> 10 µM,–,> 10 µM,> 10 µM,> 10 µM,–,–
CC(C)(C)Nc1noc(=O)n1C(C)(C)C,> 100 µM,> 100 µM,> 100 µM,> 100 µM,> 100 µM,> 100 µM,> 100 µM,> 100 µM,> 100 µM,> 100 µM,> 100 µM,> 100 µM,> 100 µM,–,–
O=C1NC(=O)C2(CCCCCC2)N1,> 100 µM,> 100 µM,> 100 µM,> 100 µM,> 100 µM,> 100 µM,> 100 µM,> 100 µM,> 100 µM,> 100 µM,> 100 µM,> 100 µM,> 100 µM,–,–
Clc1cc(Cl)cc(C2ON=C(c3ccccc3)N2C23CC4CC(CC(C4)C2)C3)c1 (centres undefined),> 10 µM,> 10 µM,> 10 µM,> 10 µM,> 10 µM,> 10 µM,> 10 µM,> 10 µM,> 10 µM,> 10 µM,> 10 µM,> 10 µM,> 10 µM,–,–
COC(=O)c1c(O)ccc2c1c1c(n2Cc2ccc(Cl)cc2Cl)C(=O)c2ccccc2C1=O,33.3 µM,21.3 µM,29.9 µM,33.1 µM,31.2 µM,15.9 µM,22 µM,11.6 µM,30 µM,13.5 µM,32.3 µM,32.1 µM,19.3 µM,–,–
C[C@]12CC/C(=N\O)C=C1CC[C@@H]1[C@@H]2CC[C@]2(C)C(=N/O)/C(=C/c3ccc([N+](=O)[O-])cc3)C[C@@H]12,19.3 µM,34.5 µM,16 µM,18.3 µM,28.8 µM,> 100 µM,9.64 µM,44.4 µM,> 100 µM,7.61 µM,26.9 µM,21.9 µM,> 100 µM,–,–
COC(=O)C1OC(O[C@H]2CC[C@]3(C)[C@H]4CC=C5[C@@H]6CC(C)(C)CC[C@]6(C(=O)OC6OCC(O)C(O)C6OC6OC(C)C(OC7OCC(O)C(OC8OCC(O)C(O)C8O)C7O)C(OC7OCC(O)C(O)C7O)C6O)CC[C@@]5(C)[C@]4(C)CC[C@H]3C2(C)C)C(O)C(OC2OCC(O)C(O)C2O)C1O (some centres undefined),26.5 µM and 21.6 µM,18.9 µM and 16.4 µM,> 100 µM and 30.2 µM,> 100 µM and 33.9 µM,> 70.6 µM and 37.2 µM,> 84.5 µM and 20.9 µM,5.32 µM and 5.78 µM,> 100 µM and 20.2 µM,4.02 µM and 6.16 µM,9 µM and 15.6 µM,25.3 µM and 26.3 µM,10.1 µM and 10.9 µM,11.3 µM and 11.7 µM,5.19 µM and 11.7 µM,–
CCCCC(Sc1cc(Cl)c(C)cc1S(=O)(=O)Nc1n[nH]c(N)n1)C(=O)OC (centres undefined),> 10 µM,> 10 µM,> 10 µM,> 10 µM,> 10 µM,> 10 µM,> 10 µM,> 10 µM,> 10 µM,> 10 µM,> 10 µM,> 10 µM,> 10 µM,–,–
CC(C)NC(=O)OCc1c(COC(=O)NC(C)C)c(-c2cc[n+](COC(=O)C(C)(C)C)cc2)n2c1CCC2,> 100 µM,> 100 µM,> 100 µM,> 100 µM,> 100 µM,> 100 µM,> 100 µM,> 100 µM,> 100 µM,> 100 µM,> 100 µM,> 100 µM,> 100 µM,–,–
COc1ccc(OCc2ccc3nc(-c4ccccc4)c(Cl)nc3c2)cc1,> 100 µM,> 100 µM,45.4 µM,> 100 µM,> 100 µM,> 100 µM,40.5 µM,95.4 µM,> 100 µM,> 100 µM,> 100 µM,> 100 µM,> 100 µM,–,–
COc1cccc2c1OC(c1ccc(C#N)cc1)C([N+](=O)[O-])=C2 (centres undefined),3.38 µM,4.13 µM,4.51 µM,5.74 µM,9.39 µM,2.88 µM,0.412 µM,3.11 µM,5.93 µM,–,7.32 µM,3.14 µM,7.03 µM,–,–
CCC[C@H](NS(=O)c1ccc(C)cc1)C(C(=O)OCC)=C(c1ccccc1)c1ccccc1 (some centres undefined),33.6 µM,50.7 µM,> 100 µM,71.2 µM,36.7 µM,43.2 µM,55.1 µM,49 µM,58 µM,55.8 µM,54.2 µM,30.4 µM,96.9 µM,–,–
CC(NC(=O)C(N)CC(=O)O)NC(=O)C1CCC1 (centres undefined),> 100 µM,> 100 µM,> 100 µM,> 100 µM,> 100 µM,> 100 µM,> 100 µM,> 100 µM,> 100 µM,> 100 µM,> 100 µM,> 100 µM,> 100 µM,–,–

Compound,TGI (LOX IMVI melanoma),TGI (PC-3 prostate),TGI (CCRF-CEM leukemia),TGI (HS 578T breast),TGI (DU-145 prostate),TGI (MCF7 breast),TGI (NCI-H522 lung),TGI (OVCAR-4 ovarian),TGI (SK-MEL-28 melanoma),TGI (RPMI-8226 leukemia),TGI (SNB-75 CNS),TGI (HT29 colon),TGI (A549 NSCLC),GI50 (SNB-75 CNS),GI50 (NCI-H522 lung)
C=C(C)[C@@]1(OC(=O)c2cc([N+](=O)[O-])cc([N+](=O)[O-])c2)C[C@@H]2CCCC[C@@H]21,> 100 µM,> 100 µM,> 100 µM,> 100 µM,> 100 µM,> 100 µM,> 100 µM,> 100 µM,> 100 µM,> 100 µM,> 100 µM,> 100 µM,> 100 µM,–,–
CC(=O)Nc1cc2c3c(c1)CCCN3CCC2,> 100 µM,> 100 µM,> 100 µM,> 100 µM,> 100 µM,> 100 µM,> 100 µM,> 100 µM,> 100 µM,> 100 µM,> 100 µM,> 100 µM,> 100 µM,–,–
O=C(Nc1ccccc1)N(C1=NCC(CI)S1)c1ccc(F)cc1F (centres undefined),35.2 µM,> 100 µM,48.1 µM,> 100 µM,> 100 µM,> 100 µM,> 100 µM,> 100 µM,83.4 µM,> 100 µM,> 100 µM,> 100 µM,> 100 µM,–,–
CC(=O)O[C@H]1/C(=C/c2ccncc2)C[C@H]2[C@@H]3CC=C4C[C@@H](N5CCCC5)CC[C@]4(C)[C@H]3CC[C@]12C,6.82 µM,26.6 µM,38.5 µM,33.7 µM,28 µM,25.8 µM,34.9 µM,37.7 µM,26 µM,23.4 µM,28.3 µM,14.1 µM,26.8 µM,–,–
COCCCNC(=O)C1=C(C)NC(C)=C(C(=O)NCCCOC)C1,> 100 µM,> 100 µM,> 100 µM,> 100 µM,> 100 µM,> 100 µM,27.4 µM,> 100 µM,> 100 µM,> 100 µM,> 100 µM,> 100 µM,> 100 µM,–,–
Cc1ccc(-c2cc(C(F)(F)F)nn2-c2ccc(S(N)(=O)=O)cc2)cc1,31.7 µM,34.1 µM,40.7 µM,58.7 µM,> 57.7 µM,> 58.4 µM,77.6 µM,46.4 µM,> 56.2 µM,29.9 µM,> 53.8 µM,> 55.5 µM,> 52.6 µM,–,19.9 µM
CCCCCCOc1ccc(C(=O)NO)cc1,20.7 µM,35.2 µM,5.27 µM,67.2 µM,18.2 µM,> 100 µM,19.7 µM,> 66.3 µM,43.9 µM,29.8 µM,> 67.2 µM,22.7 µM,43.3 µM,–,–
CCOC(=O)c1cnc2n(c1=N)[C@H]1CCCC[C@@H]1N2,> 100 µM,> 100 µM,–,> 100 µM,> 100 µM,> 100 µM,> 100 µM,> 100 µM,> 100 µM,> 100 µM,> 100 µM,> 100 µM,> 100 µM,–,–
CC(NC(=O)c1ccccc1)NC(=O)C(C)C(=O)Nc1ccccc1 (centres undefined),–,> 100 µM,> 100 µM,> 100 µM,> 100 µM,> 100 µM,> 100 µM,> 100 µM,–,> 100 µM,> 100 µM,> 100 µM,> 100 µM,–,–
CC(SC(=S)N1CCOCC1)C(=O)Nc1nnc(-c2ccccc2)o1 (centres undefined),> 100 µM,> 100 µM,18.3 µM,> 100 µM,> 100 µM,> 100 µM,> 100 µM,> 100 µM,> 100 µM,> 100 µM,> 100 µM,> 100 µM,> 100 µM,–,–
Cc1nnc2sc(NN)nn12,> 100 µM,> 100 µM,> 100 µM,> 100 µM,> 100 µM,> 100 µM,> 100 µM,> 100 µM,> 100 µM,> 100 µM,> 100 µM,> 100 µM,> 100 µM,–,–
Cc1nc(N/N=C/c2ccccc2Cl)[nH]c(=O)c1CCO,> 100 µM,> 100 µM,> 100 µM,81.1 µM,> 100 µM,> 100 µM,34.4 µM,> 100 µM,> 100 µM,> 100 µM,41.4 µM,> 100 µM,> 100 µM,–,–
COc1ccc(C(CC(=O)C(C)(C)CN2CCCCC2)SCCS(=O)(=O)O)cc1 (centres undefined),–,> 100 µM,55.1 µM,> 100 µM,> 100 µM,> 100 µM,43.4 µM,> 100 µM,–,63.9 µM,91.9 µM,83.2 µM,> 100 µM,–,–
COc1cc(OC)c2nc(C)c3c(c2c1)NCC3,15 µM,20 µM,31.3 µM,15.1 µM,59 µM,17.8 µM,19.6 µM,15.6 µM,28.5 µM,–,26.6 µM,15.5 µM,34.1 µM,–,–
O=P1(Oc2ccccc2)N(CCCl)CCN1c1ccccc1 (centres undefined),> 100 µM,> 100 µM,> 100 µM,> 100 µM,> 100 µM,> 100 µM,> 100 µM,> 100 µM,> 100 µM,> 100 µM,> 100 µM,> 100 µM,> 100 µM,–,–
CO/N=C(\C(=O)N(C)n1cnnc1)c1csc(NC(c2ccccc2)(c2ccccc2)c2ccccc2)n1,> 10 µM,> 10 µM,> 10 µM,> 10 µM,> 10 µM,> 10 µM,> 10 µM,> 10 µM,> 10 µM,> 10 µM,> 10 µM,> 10 µM,> 10 µM,–,–
O=C(c1ccccc1)c1ccc(-n2c3ccccc3c3ccc4c(c32)C(=O)C=CC4=O)cc1,16.3 µM,25.8 µM,–,> 55.5 µM,> 40.1 µM,10 µM,8.9 µM,31.8 µM,30.1 µM,> 100 µM,> 58.4 µM,8.35 µM,36.4 µM,–,–
